Legend:
[1] = Evaluation of retinal penetration of NACA: NACA/NAC levels in plasma, aqueous, vitreous and retina after 20 mg/mL NACA in drinking water for 7 days; type: in vivo, mice (rd10 and wild type C57/BL6); settings: for mean level in aqueous humor compared with plasma: 20 mg/mL NACA in drinking water (FIG. 2); for measurability in the retina: animals treated with NACA, N=20 eyes per strain (FIG. 4); for mean level in retina compared with plasma: either type of mice (FIG. 4 compared to FIG. 1); for mean retina levels: 20 mg/mL NACA in drinking water P28-P35, estimated dose 60-80 mg/day
Protocol: The objective of this study was to determine retinal levels of NACA/NAC after administration of 20 mg/mL NACA in drinking water for 7 days in a mouse model of RP and in wild type mice. This experiment was designed to provide rapid confirmation that NACA and/or NAC penetrate the retina following oral administration and to allow comparison of the tissue levels of NACA and NAC in vitreous and retina to plasma. It also provided a comparison of retinal penetration in mice with RP and wild type mice to determine if the breakdown in the blood-retinal barrier in RP affects the levels of NACA in the retina.
Animals and Treatments. Mice were treated in accordance with the recommendations of the Association for Research in Vision and Ophthalmology. Litters of homozygous rd10/rd10 mice (B6.CXB1-Pde6brd10/J) and wild type C57/BL6 mice (The Jackson Laboratory, Bar Harbor, Me.) were used for these studies.
Starting on post-natal day 28 (P28), animals were given normal drinking water (controls, n=10 for each strain) or water containing 20 mg/ml NACA (n=10 for each strain).
Analysis of NACA and NAC. Upon sacrifice of the mice on P35 (post-natal day 35), retina, aqueous, vitreous and plasma were collected, weighed, and stabilized as quickly as possible and stored at −80° C. prior to shipment to AIT Bioscience, LLC (Indianapolis, Ind.). The qualified bioanalytical method (BAM.0445.01) for the quantitation of total NAC NACA in K2EDTA was based on derivatization, protein precipitation extraction, and LC-MS/MS instrumental analysis. Any disulfides were reduced to free thiols and subsequently reacted with 2-chloro-1-methylpyridinium iodide (CMPI) to form stable thioethers. The thioether derivatives were detected by LC-MS/MS. Stable label isotope internal standards were used. The method covered a concentration range from 50.0 to 50,000 ng/mL.
Evaluation of Retinal Penetration of NACA. To determine retinal levels of NACA/NAC after administration of 20 mg/mL NACA in drinking water for 7 days. This experiment was designed to provide rapid confirmation that NACA penetrates the retina following oral administration and to compare levels of NACA and its major metabolite, NAC. in retina, aqueous humor, vitreous humor and plasma. This experiment was also designed to evaluate if the breakdown in the blood-retinal barrier in RP (simulated by the rd10 mice) affects the levels of NACA in the retina by comparing animals with RP to wild type mice.
Rd10 and C57BL/6 wild type mice began treatment at P28 (post-natal day 28), at P35 mice were euthanized and plasma, vitreous and retina samples were sent to AITBioscences (Indianapolis, Ind.) for determination of NACA and NAC levels by a validated method using high-pressure liquid chromatography with tandem mass spectrometric/mass spectrometric detection (LCMS). Experimental groups: (n=10/group). The research was performed in 4 discrete treatment groups: • 1. Rd10 allowed to freely drink NACA 20 mg/mL-spiked drinking water with measurements at P35; • 2. Rd10 allowed to freely drink untreated water with measurements at P35; • 3. C57/BL6 NACA 20 mg/mL in drinking water measurements at P35; • 4. C57/BL6 allowed to freely drink untreated water with measurements at P35.

cone survival = settings: orally administered; cited from earlier work
[2] = oral formulations; cited from earlier work
[3] = cited from earlier work; for plasma level: rats, within 30 minutes following oral administration of 500 mg/kg NACA; for detection in the brain: within 30 minutes following oral administration of NACA
[4] = tested on: human retinal pigment epithelial cells; settings: cited from earlier work
[5] = tested on: mice exposed to phototoxic doses of light; settings: cited from earlier work
rd10 mice = settings: 7 mg/mL NACA versus 20 mg/mL NAC in drinking water, P35 and P50; cited from earlier work

Compound	mean level in aqueous humor compared with plasma [1]	measurability in the retina [1]	mean level in retina compared with plasma [1]	cone survival and cone function (cone survival)	systemic bioavailability for oral administration [2] [%]	plasma level [3] [µM]	detection in the brain [3]	protection against oxidative stress-induced cellular injury and death [4]	retinal pigment epithelial cell integrity, outer nuclear layer cell death, photoreceptor function [5]	ratio of NACA:NAC in the retina, rd10 mice compared with C57/B16 mice ([1]; 20 mg/mL NACA in drinking water (FIG. 5))	mean plasma level, rd10 mice compared with wild type ([1]; 20 mg/ml NACA in drinking water (FIG. 1))	level in vitreous humor ([1]; N=7 or 8 eyes rd10, N=10 eyes C57/B16 (FIG. 3))	mean concentration in aqueous humor, rd10 mice compared with wild type ([1]; N=8 eyes rd10, N=10 C57/B16 (FIG. 2))	mean NACA level in plasma compared with NAC level ([1]; both strains, 20 mg/ml NACA in drinking water, N=10 per strain (FIG. 1))	mean retina levels ([1]; rd10 mice)	mean retina levels ([1]; wild type mice) [µg/g]	protection of scotopic and photopic b-waves and cone density (rd10 mice)
CC(=O)N[C@@H](CS)C(=O)O [NAC, N-Acetylcysteine, reference compound]	lower than in plasma	measurable in all animals treated with NACA	higher, in either type of mice, than those observed in plasma	promotes prolonged cone survival and maintenance of cone function	< 10	84.55 ± 6.73	detected in the brain	–	–	–	–	–	–	–	–	–	–
N-acetylcysteine amide [NACA]	lower than in plasma	measurable in all animals treated with NACA	higher, in either type of mice, than those observed in plasma	–	–	15.07 ± 5.08	detected in the brain	protected against oxidative stress-induced cellular injury and death	maintained retinal pigment epithelial cell integrity, prevented outer nuclear layer cell death and rescued photoreceptor function	greater in the retina of rd10 mice than in C57/B16 mice	greater in rd10 mice than in the wild type	A similar pattern was observed	higher in rd10 mice than wild type	greater than the NAC levels in both strains of mice	approximately 6.5 μg/g	~2.4	more effective

Reference: patent publication US20190151271A1, “COMPOSITIONS AND METHODS FOR TREATMENT OF EYE DISEASES” (The Johns Hopkins University, priority 2017, published 2019)
